Test results as given in patent US8822146B2, “Derivatization of biomolecules by covalent coupling of non-cofactor compounds using methyltransferases” (Vilnius University, priority 2009, dated 2014).

Columns and labels:
M.Hpall = M.Hpall (Haemophilus parainfluenzae, UniProt P15446); conditions: 13 mM formaldehyde, 1000 nM M.Hpall, 100 nM pUC-618, 1 hour, room temperature
M.Sssl = M.Sssl (Spiroplasma monobiae, UniProt P15840); conditions: 13 mM formaldehyde, 500 nM M.Sssl, 100 nM pUC-618, 1 hour, room temperature
M.Hhal = M.Hhal (Haemophilus parahaemolyticus, UniProt P05102); experiment: DNA protection assay: pUC-618 fragment modified with aldehyde in the presence of M.Hhal, then R.Hin6I cleavage; assay type: biochemical; conditions: 800 mM acetaldehyde, 50 nM M.Hhal, 100 nM pUC-618, 1 hour, room temperature
Description: A 618 bp fragment of plasmid […] (pUC-618), which contains a single target site for M.Hhal, was used as a DNA substrate. pUC-618 was prepared by PCR amplification of the pUC19 template (Fermentas Life Sciences) using Dir (5′-[…]) (SEQ ID No:11) and Rev (5′-[…]) (SEQ ID No:12) primers and Taq DNA Polymerase (Fermentas Life Sciences). The PCR fragment was purified by Sephacryl S-400 (GE Healthcare) following the precipitation by ethanol. pUC-618 contains a single target site for M.Hhal.

M.Sssl, sequence (P15840 whole entry, the tested form may be a part): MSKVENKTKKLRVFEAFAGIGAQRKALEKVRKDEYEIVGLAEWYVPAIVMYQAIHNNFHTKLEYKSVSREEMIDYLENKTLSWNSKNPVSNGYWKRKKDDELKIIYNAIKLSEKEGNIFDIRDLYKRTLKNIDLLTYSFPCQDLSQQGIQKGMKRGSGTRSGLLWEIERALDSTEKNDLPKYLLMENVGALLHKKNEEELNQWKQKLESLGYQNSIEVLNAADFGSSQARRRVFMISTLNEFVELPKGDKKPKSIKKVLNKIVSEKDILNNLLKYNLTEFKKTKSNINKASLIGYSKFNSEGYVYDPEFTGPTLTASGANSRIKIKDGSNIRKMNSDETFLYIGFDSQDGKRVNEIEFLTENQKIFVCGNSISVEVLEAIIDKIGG
M.Hpall, sequence (P15446 whole entry): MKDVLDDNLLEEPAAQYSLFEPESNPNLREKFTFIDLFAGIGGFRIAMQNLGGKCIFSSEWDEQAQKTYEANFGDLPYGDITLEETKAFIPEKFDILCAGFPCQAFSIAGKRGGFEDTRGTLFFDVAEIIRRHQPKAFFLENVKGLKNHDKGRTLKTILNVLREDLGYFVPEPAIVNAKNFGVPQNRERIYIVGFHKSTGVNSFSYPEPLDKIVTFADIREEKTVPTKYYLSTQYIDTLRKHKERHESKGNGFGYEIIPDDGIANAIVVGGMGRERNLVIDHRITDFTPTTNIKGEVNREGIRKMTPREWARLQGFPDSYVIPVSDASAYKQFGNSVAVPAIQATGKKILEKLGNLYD
M.Hhal, sequence (P05102 whole entry, the tested form may be a part): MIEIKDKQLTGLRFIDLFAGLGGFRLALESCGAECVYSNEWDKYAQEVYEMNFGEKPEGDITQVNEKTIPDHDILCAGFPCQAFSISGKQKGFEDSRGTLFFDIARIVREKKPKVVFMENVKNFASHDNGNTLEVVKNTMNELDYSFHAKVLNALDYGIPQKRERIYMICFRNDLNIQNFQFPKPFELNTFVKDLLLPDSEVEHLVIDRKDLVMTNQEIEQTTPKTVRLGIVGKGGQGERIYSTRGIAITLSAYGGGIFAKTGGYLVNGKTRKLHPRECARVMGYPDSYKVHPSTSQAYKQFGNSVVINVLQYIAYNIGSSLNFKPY

| SMILES | resistance of the CCGG sites to cleavage with R.Hpall (M.Hpall) | resistance of the GCGC site to cleavage with R.Hin6I (M.Sssl) | resistance of the GCGC site to R.Hin6I cleavage (M.Hhal) |
| --- | --- | --- | --- |
| C=O [formaldehyde] | 70% | 70% | – |
| CC=O [acetaldehyde] | – | – | nearly fully |
